How the values were obtained:
Parameters in all cases: scale not given: the % may be the effect or the level left
[1] = system: Tyrosine-protein kinase ABL1 (Homo sapiens), P00519 [Q252H]; assay: Inhibition of DNA-tagged non-phosphorylated human ABL1 Q252H mutant assessed as percent of control at 50000 nM by qPCR analysis relative to control
[2] = target: Myotonin-protein kinase (Homo sapiens) (UniProt Q09013); assay: Inhibition of DNA-tagged human DMPK assessed as percent of control at 50000 nM by qPCR analysis relative to control
[3] = target: Serine/threonine-protein kinase 35 (Homo sapiens) (UniProt Q8TDR2); assay: Inhibition of DNA-tagged human STK35 assessed as percent of control at 50000 nM by qPCR analysis relative to control
[4] = target: Dual specificity protein kinase CLK4 (Homo sapiens) (UniProt Q9HAZ1); assay: Inhibition of DNA-tagged human CLK4 assessed as percent of control at 50000 nM by qPCR analysis relative to control
[5] = target: Cyclin-dependent kinase 14 (Homo sapiens) (UniProt O94921); assay: Inhibition of DNA-tagged human PFTK1 assessed as percent of control at 50000 nM by qPCR analysis relative to control
[6] = target: Tyrosine-protein kinase JAK1 (Homo sapiens) (UniProt P23458); assay: Inhibition of DNA-tagged human JAK1 JH1 catalytic domain assessed as percent of control at 50000 nM by qPCR analysis relative to control
[7] = target: Tyrosine-protein kinase TXK (Homo sapiens) (UniProt P42681); assay: Inhibition of DNA-tagged human TXK assessed as percent of control at 50000 nM by qPCR analysis relative to control
[8] = system: Hepatocyte growth factor receptor (Homo sapiens), P08581 [Y1235D]; assay: Inhibition of DNA-tagged human MET Y1235D mutant assessed as percent of control at 50000 nM by qPCR analysis relative to control
[9] = target: Mitogen-activated protein kinase kinase kinase 6 (Homo sapiens) (UniProt O95382); assay: Inhibition of DNA-tagged human ASK2 assessed as percent of control at 50000 nM by qPCR analysis relative to control
[10] = target: TGF-beta receptor type-2 (Homo sapiens) (UniProt P37173); assay: Inhibition of DNA-tagged human TGFBR2 assessed as percent of control at 50000 nM by qPCR analysis relative to control
[11] = target: Serine/threonine-protein kinase BRSK1 (Homo sapiens) (UniProt Q8TDC3); assay: Inhibition of DNA-tagged human BRSK1 assessed as percent of control at 50000 nM by qPCR analysis relative to control
[12] = target: Platelet-derived growth factor receptor alpha (Homo sapiens) (UniProt P16234); assay: Inhibition of DNA-tagged human PDGFRA assessed as percent of control at 50000 nM by qPCR analysis relative to control
[13] = target: Cyclin-dependent kinase-like 1 (Homo sapiens) (UniProt Q00532); assay: Inhibition of DNA-tagged human CDKL1 assessed as percent of control at 50000 nM by qPCR analysis relative to control
[14] = target: SRSF protein kinase 3 (Homo sapiens) (UniProt Q9UPE1); assay: Inhibition of DNA-tagged human SRPK3 assessed as percent of control at 50000 nM by qPCR analysis relative to control
[15] = system: Mast/stem cell growth factor receptor Kit (Homo sapiens), P10721 [V559D]; assay: Inhibition of DNA-tagged human KIT V559D mutant assessed as percent of control at 50000 nM by qPCR analysis relative to control
[16] = target: Vascular endothelial growth factor receptor 3 (Homo sapiens) (UniProt P35916); assay: Inhibition of DNA-tagged human FLT4 assessed as percent of control at 50000 nM by qPCR analysis relative to control
[17] = target: Serine/threonine-protein kinase D3 (Homo sapiens) (UniProt O94806); assay: Inhibition of DNA-tagged human PRKD3 assessed as percent of control at 50000 nM by qPCR analysis relative to control
[18] = target: Ribosomal protein S6 kinase beta-1 (Homo sapiens) (UniProt P23443); assay: Inhibition of DNA-tagged human S6K1 assessed as percent of control at 50000 nM by qPCR analysis relative to control
[19] = target: Serine/threonine-protein kinase VRK2 (Homo sapiens) (UniProt Q86Y07); assay: Inhibition of DNA-tagged human VRK2 assessed as percent of control at 50000 nM by qPCR analysis relative to control
[20] = target: Mitogen-activated protein kinase 14 (Homo sapiens) (UniProt Q16539); assay: Inhibition of DNA-tagged human p38-alpha assessed as percent of control at 50000 nM by qPCR analysis relative to control
[21] = target: Serine/threonine-protein kinase/endoribonuclease IRE1 (Homo sapiens) (UniProt O75460); assay: Inhibition of DNA-tagged human ERN1 assessed as percent of control at 50000 nM by qPCR analysis relative to control
[22] = target: Ribosomal protein S6 kinase alpha-4 (Homo sapiens) (UniProt O75676); assay: Inhibition of DNA-tagged human C-terminal RPS6KA4 kinase domain 2 assessed as percent of control at 50000 nM by qPCR analysis relative to control
[23] = target: Serine/threonine-protein kinase ULK3 (Homo sapiens) (UniProt Q6PHR2); assay: Inhibition of DNA-tagged human ULK3 assessed as percent of control at 50000 nM by qPCR analysis relative to control
[24] = target: Leukocyte tyrosine kinase receptor (Homo sapiens) (UniProt P29376); assay: Inhibition of DNA-tagged human LTK assessed as percent of control at 50000 nM by qPCR analysis relative to control
[25] = system: Receptor-type tyrosine-protein kinase FLT3 (Homo sapiens), P36888 [UNDEFINED MUTATION]; assay: Inhibition of DNA-tagged human FLT3 ITD mutant assessed as percent of control at 50000 nM by qPCR analysis relative to control
[26] = target: Bone morphogenetic protein receptor type-1B (Homo sapiens) (UniProt O00238); assay: Inhibition of DNA-tagged human BMPR1B assessed as percent of control at 50000 nM by qPCR analysis relative to control
[27] = target: Fibroblast growth factor receptor 3 (Homo sapiens) (UniProt P22607); assay: Inhibition of DNA-tagged human FGFR3 assessed as percent of control at 50000 nM by qPCR analysis relative to control
[28] = target: Cyclin-dependent kinase 18 (Homo sapiens) (UniProt Q07002); assay: Inhibition of DNA-tagged human PCTK3 assessed as percent of control at 50000 nM by qPCR analysis relative to control
[29] = target: Serine/threonine-protein kinase Chk1 (Homo sapiens) (UniProt O14757); assay: Inhibition of DNA-tagged human CHEK1 assessed as percent of control at 50000 nM by qPCR analysis relative to control
[30] = target: Serine/threonine-protein kinase pim-2 (Homo sapiens) (UniProt Q9P1W9); assay: Inhibition of DNA-tagged human PIM2 assessed as percent of control at 50000 nM by qPCR analysis relative to control

Sequence of Serine/threonine-protein kinase D3 (Homo sapiens) (O94806 whole entry): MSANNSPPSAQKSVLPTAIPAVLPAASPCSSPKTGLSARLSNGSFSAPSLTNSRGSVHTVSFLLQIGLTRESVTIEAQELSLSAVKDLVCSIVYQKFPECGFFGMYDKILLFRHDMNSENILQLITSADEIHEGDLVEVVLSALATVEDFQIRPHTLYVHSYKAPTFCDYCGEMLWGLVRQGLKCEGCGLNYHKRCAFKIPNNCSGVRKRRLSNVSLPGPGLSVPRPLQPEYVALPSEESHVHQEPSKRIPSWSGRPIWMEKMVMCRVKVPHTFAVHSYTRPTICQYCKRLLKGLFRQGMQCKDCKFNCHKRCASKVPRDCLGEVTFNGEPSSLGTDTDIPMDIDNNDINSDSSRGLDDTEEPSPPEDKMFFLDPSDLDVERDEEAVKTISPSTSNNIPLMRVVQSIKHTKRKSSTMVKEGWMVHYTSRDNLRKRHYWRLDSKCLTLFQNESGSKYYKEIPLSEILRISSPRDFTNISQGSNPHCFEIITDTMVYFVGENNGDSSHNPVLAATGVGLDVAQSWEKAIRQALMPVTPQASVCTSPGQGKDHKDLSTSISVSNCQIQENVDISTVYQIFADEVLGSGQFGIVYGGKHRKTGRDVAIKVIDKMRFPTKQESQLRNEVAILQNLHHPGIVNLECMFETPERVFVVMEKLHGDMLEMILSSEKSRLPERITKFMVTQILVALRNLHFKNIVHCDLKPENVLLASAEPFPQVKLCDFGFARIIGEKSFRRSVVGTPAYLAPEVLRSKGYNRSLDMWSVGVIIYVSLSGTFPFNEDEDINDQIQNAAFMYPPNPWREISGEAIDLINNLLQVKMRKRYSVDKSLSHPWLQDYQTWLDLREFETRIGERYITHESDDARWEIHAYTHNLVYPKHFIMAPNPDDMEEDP
Sequence of Mast/stem cell growth factor receptor Kit (Homo sapiens), P10721 [V559D] (P10721 whole entry V559D): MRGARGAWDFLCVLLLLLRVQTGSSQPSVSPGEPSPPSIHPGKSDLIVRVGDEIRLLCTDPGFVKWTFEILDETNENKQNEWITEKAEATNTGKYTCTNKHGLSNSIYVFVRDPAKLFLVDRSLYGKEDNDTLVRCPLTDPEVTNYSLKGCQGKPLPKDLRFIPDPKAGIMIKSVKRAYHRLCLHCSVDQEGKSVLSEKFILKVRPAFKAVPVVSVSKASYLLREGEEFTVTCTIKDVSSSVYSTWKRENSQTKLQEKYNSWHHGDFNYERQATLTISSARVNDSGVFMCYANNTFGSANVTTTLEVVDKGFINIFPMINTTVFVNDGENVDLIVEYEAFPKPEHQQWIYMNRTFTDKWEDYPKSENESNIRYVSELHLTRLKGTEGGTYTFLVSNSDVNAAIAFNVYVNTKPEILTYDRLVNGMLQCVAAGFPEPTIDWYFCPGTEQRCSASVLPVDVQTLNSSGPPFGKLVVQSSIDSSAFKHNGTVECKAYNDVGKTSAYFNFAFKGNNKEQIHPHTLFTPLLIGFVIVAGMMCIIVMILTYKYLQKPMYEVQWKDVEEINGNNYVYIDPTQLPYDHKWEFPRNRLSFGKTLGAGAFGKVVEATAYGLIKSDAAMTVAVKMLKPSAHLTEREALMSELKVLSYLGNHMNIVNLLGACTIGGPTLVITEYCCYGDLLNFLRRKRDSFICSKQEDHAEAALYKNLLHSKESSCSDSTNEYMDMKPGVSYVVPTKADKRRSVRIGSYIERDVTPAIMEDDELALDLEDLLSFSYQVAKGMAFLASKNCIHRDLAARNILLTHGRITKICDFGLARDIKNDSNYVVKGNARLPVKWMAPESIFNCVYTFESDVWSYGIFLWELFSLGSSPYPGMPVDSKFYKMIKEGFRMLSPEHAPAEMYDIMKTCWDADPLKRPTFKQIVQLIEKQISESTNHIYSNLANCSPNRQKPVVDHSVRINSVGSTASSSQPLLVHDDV
Sequence of Leukocyte tyrosine kinase receptor (Homo sapiens) (P29376 whole entry): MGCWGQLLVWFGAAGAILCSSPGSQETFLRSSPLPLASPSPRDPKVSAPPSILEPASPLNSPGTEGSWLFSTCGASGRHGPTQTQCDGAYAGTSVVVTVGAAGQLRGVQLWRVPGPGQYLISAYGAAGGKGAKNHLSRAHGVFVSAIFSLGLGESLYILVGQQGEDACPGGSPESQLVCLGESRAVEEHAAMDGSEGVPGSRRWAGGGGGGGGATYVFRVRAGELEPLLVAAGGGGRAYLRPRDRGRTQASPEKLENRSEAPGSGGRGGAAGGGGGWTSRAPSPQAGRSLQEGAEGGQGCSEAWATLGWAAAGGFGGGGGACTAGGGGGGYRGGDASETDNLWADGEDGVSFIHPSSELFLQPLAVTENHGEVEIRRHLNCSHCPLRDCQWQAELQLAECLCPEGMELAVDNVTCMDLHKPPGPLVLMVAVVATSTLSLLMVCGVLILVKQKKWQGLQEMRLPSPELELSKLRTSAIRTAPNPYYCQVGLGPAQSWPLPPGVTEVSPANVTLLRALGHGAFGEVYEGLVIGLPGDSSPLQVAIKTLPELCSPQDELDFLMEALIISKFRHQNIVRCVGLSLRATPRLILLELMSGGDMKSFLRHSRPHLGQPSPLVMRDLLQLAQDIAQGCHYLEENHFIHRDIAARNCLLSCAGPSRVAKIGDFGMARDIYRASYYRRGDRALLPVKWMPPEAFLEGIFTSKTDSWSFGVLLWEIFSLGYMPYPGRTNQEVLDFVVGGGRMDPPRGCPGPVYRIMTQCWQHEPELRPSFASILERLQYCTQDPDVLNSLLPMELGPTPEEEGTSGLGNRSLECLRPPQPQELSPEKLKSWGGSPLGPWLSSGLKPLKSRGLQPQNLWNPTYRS
Sequence of Cyclin-dependent kinase-like 1 (Homo sapiens) (Q00532 whole entry): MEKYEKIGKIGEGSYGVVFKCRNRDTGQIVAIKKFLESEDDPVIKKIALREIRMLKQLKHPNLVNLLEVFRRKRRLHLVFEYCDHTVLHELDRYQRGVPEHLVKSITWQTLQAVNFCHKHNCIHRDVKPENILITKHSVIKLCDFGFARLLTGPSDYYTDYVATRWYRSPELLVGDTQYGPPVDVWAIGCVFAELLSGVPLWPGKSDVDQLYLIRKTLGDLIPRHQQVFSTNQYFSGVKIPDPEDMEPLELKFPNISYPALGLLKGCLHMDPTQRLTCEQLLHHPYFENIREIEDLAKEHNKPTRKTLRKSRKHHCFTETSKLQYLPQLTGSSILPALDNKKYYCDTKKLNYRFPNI
Sequence of Fibroblast growth factor receptor 3 (Homo sapiens) (P22607 23-806 limits assumed): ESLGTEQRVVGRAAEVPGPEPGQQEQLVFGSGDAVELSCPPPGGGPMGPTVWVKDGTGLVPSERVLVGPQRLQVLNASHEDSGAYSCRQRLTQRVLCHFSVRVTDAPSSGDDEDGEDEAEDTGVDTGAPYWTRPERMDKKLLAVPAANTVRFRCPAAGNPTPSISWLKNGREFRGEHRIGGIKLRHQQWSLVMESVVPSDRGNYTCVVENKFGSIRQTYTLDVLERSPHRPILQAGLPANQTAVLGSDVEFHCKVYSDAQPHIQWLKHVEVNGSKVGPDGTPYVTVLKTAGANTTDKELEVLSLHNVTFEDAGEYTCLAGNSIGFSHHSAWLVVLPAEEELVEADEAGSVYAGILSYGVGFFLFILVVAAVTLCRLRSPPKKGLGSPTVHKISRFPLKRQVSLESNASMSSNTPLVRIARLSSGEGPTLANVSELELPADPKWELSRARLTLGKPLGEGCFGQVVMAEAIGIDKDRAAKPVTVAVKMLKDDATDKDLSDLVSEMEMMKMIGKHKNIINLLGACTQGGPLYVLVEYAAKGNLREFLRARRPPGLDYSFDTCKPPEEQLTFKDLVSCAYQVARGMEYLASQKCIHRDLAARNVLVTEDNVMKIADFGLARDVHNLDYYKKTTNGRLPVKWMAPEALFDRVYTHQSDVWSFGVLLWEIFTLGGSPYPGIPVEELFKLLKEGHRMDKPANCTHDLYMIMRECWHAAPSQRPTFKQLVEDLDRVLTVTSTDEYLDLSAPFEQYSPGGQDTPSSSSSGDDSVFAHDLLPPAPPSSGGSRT
Sequence of Serine/threonine-protein kinase 35 (Homo sapiens) (Q8TDR2 whole entry): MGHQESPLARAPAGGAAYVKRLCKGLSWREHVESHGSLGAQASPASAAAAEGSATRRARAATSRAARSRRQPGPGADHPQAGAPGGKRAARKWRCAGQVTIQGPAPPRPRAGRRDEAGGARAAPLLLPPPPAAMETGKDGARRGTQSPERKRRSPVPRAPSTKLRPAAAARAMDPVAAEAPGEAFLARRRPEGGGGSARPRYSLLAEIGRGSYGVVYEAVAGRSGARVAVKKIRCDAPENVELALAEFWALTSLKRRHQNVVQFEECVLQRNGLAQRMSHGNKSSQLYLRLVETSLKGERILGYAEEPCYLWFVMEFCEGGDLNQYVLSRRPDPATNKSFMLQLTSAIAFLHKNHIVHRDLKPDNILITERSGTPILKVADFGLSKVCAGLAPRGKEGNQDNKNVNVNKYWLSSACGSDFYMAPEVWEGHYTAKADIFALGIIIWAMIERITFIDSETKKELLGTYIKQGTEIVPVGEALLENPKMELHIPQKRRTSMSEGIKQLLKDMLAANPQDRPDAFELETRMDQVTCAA
Sequence of SRSF protein kinase 3 (Homo sapiens) (Q9UPE1 whole entry): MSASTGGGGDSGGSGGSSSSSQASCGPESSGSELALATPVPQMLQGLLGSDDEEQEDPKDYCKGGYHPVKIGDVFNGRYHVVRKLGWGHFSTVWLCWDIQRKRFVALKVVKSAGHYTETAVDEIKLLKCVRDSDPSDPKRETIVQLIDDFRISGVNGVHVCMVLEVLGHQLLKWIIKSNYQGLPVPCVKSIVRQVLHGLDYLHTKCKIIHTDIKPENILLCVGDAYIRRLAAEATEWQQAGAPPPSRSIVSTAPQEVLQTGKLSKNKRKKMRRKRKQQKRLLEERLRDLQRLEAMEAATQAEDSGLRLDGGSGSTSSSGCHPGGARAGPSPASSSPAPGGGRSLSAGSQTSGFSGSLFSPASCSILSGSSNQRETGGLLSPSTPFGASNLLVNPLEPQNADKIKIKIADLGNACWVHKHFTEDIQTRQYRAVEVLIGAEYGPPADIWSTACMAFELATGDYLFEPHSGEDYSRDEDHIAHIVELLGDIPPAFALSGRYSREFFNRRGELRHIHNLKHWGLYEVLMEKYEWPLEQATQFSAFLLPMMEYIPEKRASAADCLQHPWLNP

SMILES: CN1C(=O)/C(=C2/C(=O)Nc3ccccc32)c2ccccc21
- Activity [1]: 100%
- Activity [2]: 84%
- Activity [3]: 89%
- Activity [4]: 100%
- Activity [5]: 94%
- Activity [6]: 94%
- Activity [7]: 100%
- Activity [8]: 99%
- Activity [9]: 100%
- Activity [10]: 94%
- Activity [11]: 94%
- Activity [12]: 85%
- Activity [13]: 79%
- Activity [14]: 100%
- Activity [15]: 91%
- Activity [16]: 100%
- Activity [17]: 94%
- Activity [18]: 85%
- Activity [19]: 79%
- Activity [20]: 100%
- Activity [21]: 83%
- Activity [22]: 89%
- Activity [23]: 85%
- Activity [24]: 92%
- Activity [25]: 76%
- Activity [26]: 89%
- Activity [27]: 100%
- Activity [28]: 84%
- Activity [29]: 100%
- Activity [30]: 100%

Reference: ChEMBL document CHEMBL4804284
